Test results from US6914045B2, “Glycopeptide antibiotics” (Wyeth Holdings Corporation, priority 2001, dated 2005).
Converted amounts (≈) assume the structure as drawn.

How the values were obtained:
Experiment in all cases: in vitro antibacterial evaluation, MIC by broth dilution
Assay type in all cases: cell-based
[1] = tested on: Enterococcus sp.
Experimental: (§1) Methods for in vitro Antibacterial Evaluation (Table 1)
(§2) The minimum inhibitory concentration (MIC), the lowest concentration of the antibiotic which inhibits growth of the test organism, is determined by the broth dilution method using Muller-Hinton II […] (Baltimore Biological Laboratories) following the recommendations of the National Committee for Clinical Laboratory Standards [Methods for dilution antimicrobial susceptibility tests for bacteria that grow aerobically, approved standard M7-A2, National Committee for Clinical Laboratory Standards, Villanova, Pa.].
(§3) An inoculum level of 5×10^5 CFU/mL, and a range of antibiotic concentrations (64-0.06 μg/mL) is used. […] The test organisms include a spectrum of Gram-positive bacteria comprised of Staphylococcus sp., Streptococcus sp. and Enterococcus sp. These organisms include recent clinical isolates that are resistant to methicillin, penicillin and/or vancomycin.

[2] = tested on: Staphylococcus sp.
Experimental: as §1, §2, §3

[3] = tested on: Streptococcus sp.
Experimental: as §1, §2, §3

[4] = tested on: Escherichia coli
Method in brief: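 MIC is the lowest antibiotic concentration (tested 64-0.06 μg/mL) preventing growth of a 5×10^5 CFU/mL inoculum. Determined by broth dilution in Mueller-Hinton II medium following NCCLS standard M7-A2.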

Compound: CC(c1ccccc1)C1NC(=O)CNC(=O)C(CO)NC(=O)C(C(O)C2CNC(=N)N2C2OC(CO)C(O)C(O)C2O)NC(=O)C(C(O)C2CNC(=N)N2)NC(=O)C(Cc2ccc3oc(-c4ccc(-c5ccccc5)cc4)nc3c2)NC1=O (stereo not drawn) [Example 33, Cyclo[3-[2-([1,1-biphenyl]-4-yl)-1,3-benzoxazol-5-yl]alanyl-3-(2-iminoimidazolidin-4-yl)-seryl-3-(3-hexopyranosyl-2-iminoimidazolidin-4-yl)serylserylglycyl-β-methylphenylalanyl]]
- MIC Enterococcus avium (GC 4558) [1]: 8 µg/mL (≈ 6.97 µM)
- MIC Enterococcus faecalis (ATCC 29212) [1]: 32 µg/mL (≈ 27.9 µM)
- MIC Enterococcus faecalis (GC 2242) [1]: 16 µg/mL (≈ 13.9 µM)
- MIC Enterococcus faecalis (GC 2691) [1]: 16 µg/mL (≈ 13.9 µM)
- MIC Enterococcus faecalis (GC 3059) [1]: 32 µg/mL (≈ 27.9 µM)
- MIC Enterococcus faecalis (GC 4552) [1]: 16 µg/mL (≈ 13.9 µM)
- MIC Enterococcus faecalis (GC 4553) [1]: 16 µg/mL (≈ 13.9 µM)
- MIC Enterococcus faecalis (GC 4554) [1]: 16 µg/mL (≈ 13.9 µM)
- MIC Enterococcus faecalis (GC 6189) [1]: 16 µg/mL (≈ 13.9 µM)
- MIC Enterococcus faecium (GC 2243) [1]: 8 µg/mL (≈ 6.97 µM)
- MIC Enterococcus faecium (GC 4556) [1]: 64 µg/mL (≈ 55.7 µM)
- MIC Enterococcus faecium (GC 4557) [1]: 4 µg/mL (≈ 3.48 µM)
- MIC Coagulase Negative Staphylococcus (GC 4547) [2]: 4 µg/mL (≈ 3.48 µM)
- MIC Coagulase Negative Staphylococcus (GC 4548) [2]: 4 µg/mL (≈ 3.48 µM)
- MIC Coagulase Negative Staphylococcus (GC 4549) [2]: 1 µg/mL (≈ 0.871 µM)
- MIC Coagulase Negative Staphylococcus (GC 4551) [2]: 8 µg/mL (≈ 6.97 µM)
- MIC Coagulase Negative Staphylococcus (GC 6257) [2]: 4 µg/mL (≈ 3.48 µM)
- MIC Staphylococcus aureus (ATCC 29213) [2]: 8 µg/mL (≈ 6.97 µM)
- MIC Staphylococcus aureus (GC 1131) [2]: 4 µg/mL (≈ 3.48 µM)
- MIC Staphylococcus aureus (GC 3051) [2]: 16 µg/mL (≈ 13.9 µM)
- MIC Staphylococcus aureus (GC 3053) [2]: 8 µg/mL (≈ 6.97 µM)
- MIC Staphylococcus aureus (GC 4541) [2]: 8 µg/mL (≈ 6.97 µM)
- MIC Staphylococcus aureus (GC 4542) [2]: 8 µg/mL (≈ 6.97 µM)
- MIC Staphylococcus aureus (GC 4544) [2]: 4 µg/mL (≈ 3.48 µM)
- MIC Staphylococcus aureus (GC 4545) [2]: 8 µg/mL (≈ 6.97 µM)
- MIC Staphylococcus aureus-SMITH (GC 4543) [2]: 4 µg/mL (≈ 3.48 µM)
- MIC Staphylococcus haemolyticus (GC 4546) [2]: 4 µg/mL (≈ 3.48 µM)
- MIC Streptococcus agalactiae (GC 4564) [3]: 32 µg/mL (≈ 27.9 µM)
- MIC Streptococcus pneumoniae (ATCC 6301) [3]: 32 µg/mL (≈ 27.9 µM)
- MIC Streptococcus pneumoniae (GC 1894) [3]: 32 µg/mL (≈ 27.9 µM)
- MIC Streptococcus pneumoniae (GC 4565) [3]: 64 µg/mL (≈ 55.7 µM)
- MIC Streptococcus pyogenes (GC 4563) [3]: 16 µg/mL (≈ 13.9 µM)
- MIC Escherichia coli (ATCC 25922) [4]: 64 µg/mL (≈ 55.7 µM)
- MIC Escherichia coli (GC 4559) [4]: 64 µg/mL (≈ 55.7 µM)
- MIC Escherichia coli (GC 4560) [4]: 16 µg/mL (≈ 13.9 µM)
